Earlier results, collected in patent US20090162442A1, “MULTI-PHASIC, NANO-STRUCTURED COMPOSITIONS CONTAINING A COMBINATION OF A FIBRATE AND A STATIN” (priority 2007, published 2009).

[1] = American Family Physician, 2002, Vol. 65, No. 6, page 1173

SMILES | absorbed (rate of absorption) [1] | bioavailable [1] | bioavailability under fed conditions (food interaction)
CC(C)n1c(/C=C/C(O)CC(O)CC(=O)O)c(-c2ccc(F)cc2)c2ccccc21 (centres unmarked) [fluvastatin] | 98% | approximately 24% | decrease
CC[C@H](C)C(=O)O[C@H]1C[C@@H](C)C=C2C=C[C@H](C)[C@H](CC[C@@H]3C[C@@H](O)CC(=O)O3)[C@H]21 [lovastatin] | about 30% | – | –
CC[C@H](C)C(=O)O[C@H]1C[C@H](O)C=C2C=C[C@H](C)[C@H](CC[C@@H](O)C[C@@H](O)CC(=O)O)[C@H]21 [pravastatin] | – | – | decrease
